Laboratory results as given in US5639787A, “Therapeutic method for the treatment of cancer” (priority 1995, dated 1997).
Read-outs that look alike come from different tables or passages of the source.

Key:
cancer = conditions: high doses of ascorbic acid; two published trials; cited from earlier work
[1] = safety and tolerance of ascorbic acid administration; assay type: in vivo, human
Excerpt: G.; O'Fallon, J. R.; et al. Failure of High Dose Vitamin C (ascorbic acid) to Benefit Patients With Advanced Cancer: A Control Trial. N Engl. J. Med., 1979; 301:687-690 and Mortel, C. G.; Fleming, T. R.; Creagan, E. T.; , et al. High Dose of Vitamin C Versus Placebo In The Treatment of Patients With Advanced Cancer Who Have Had No Prior Chemotherapy. N Engl. J. Med., 1985; 312:137-141. Heretofore the highest dosage understood to be safely administered to a human was approximately 10-15 grams. […] The positive results are believed to have been achieved by means of increased stromal resistance to the invasiveness of the malignancies studied, although the lack of monitoring of the level of ascorbic acid present in the plasma prevents an accurate assessment.
Therefore, the in vitro results are not readily duplicated in vivo and the concentrations of ascorbic acid that are effectively toxic in vitro are not as effective, nor as easy to achieve, in test subjects.
The method of the present invention comprises the treatment of cancer by administering sufficient amounts of ascorbic acid to raise the concentration of ascorbic acid in the patient's plasma above a level that is cytotoxic to the cancer tumor cells. The treatment is based on the fact that tumor cells contain between 10 and 100 fold less of the enzyme catalase than normal cells. Catalase converts toxic hydrogen peroxide to non-toxic oxygen and water. This biochemical difference between normal and tumor cells provides a window of opportunity for selective toxicity. It has been known for some time that ascorbate is capable of inducing the intracellular production of hydrogen peroxide. […] The plasma levels of ascorbic acid in patients are routinely and repeatedly monitored throughout the treatment and the amount of ascorbic acid administered is adjusted according to the individual patient's tolerance and the target level of ascorbic acid. […]

[2] = tested on: metastatic fibrous histiocytoma; test: A person, intravenous ascorbate, chest x-ray; assay type: in vivo, human
Excerpt: Two masses were in the left lung and one mass was in the right lung. All masses measured approximately 2 cm. in diameter.

clinical [3] = conditions: human, in vivo, iv
Protocol: (§1) 5 a person was a with metastatic prostate cancer. A baseline blood sample was drawn from the patient and the serum was separated. An intravenous infusion of 105 grams of ascorbate was performed over 5 hours. At the and of the 5 hours another blood sample was taken and again the serum was separated. The pre-infusion serum sample was assayed and found to contain an ascorbic acid concentration of 3.4 mg/dl and the post-infusion serum samples were assayed and found to contain an ascorbic acid concentration of 165 mg/dl. The cytotoxic effectiveness of both serum samples was tested against a line of human prostate tumor cells called "PC-3"from American Type Culture Collection. The PC-3 cells were plated, 3,000 cells per well in plastic 96 well tissue culture plates 24 hours before the blood was taken from the patient above. 100% and 50% (diluted with complete culture medium, DMEM) serum solutions from both samples were added to 16 wells each of the PC-3 cells which had been plated earlier. After a five day incubation, the number of surviving tumor cells in the wells containing the 100% and 50% solutions of the post-infusion serum sample was compared to the number of surviving tumor cells in the wells containing the 100% and 50% solutions of the pre-infusion serum sample and the percent survival was calculated as follows: […]

tumor cell lines = conditions: cited from earlier work
[4] = tested on: patient's tumor cells (metastatic colon carcinoma); test: cells; assay type: cell-based; conditions: Homo sapiens, Colon carcinoma cell, read-out: toxic to percent of the patient's tumor cells
Protocol: (§2) 3 Mr. […] Cancer was discovered during exploratory surgery. Multiple metastases were found on the omentum, transverse and sigmoid colon, and the peritoneum. Biopsy samples from these metastases were obtained during surgery and most of the tumor mass was not removed. A cell culture line was established from the tissue biopsies, and the patient tumor cells were tested to determine the sensitivity of the tumor cells to ascorbic acid. […] A target level of plasma concentration of ascorbic acid was selected at three times the level found to be toxic to the patient's tumor cells. Intravenous ascorbate was begun and the infusion quantity and rate required to achieve and maintain the targeted plasma ascorbic acid concentration of 90 mg/dl was determined. Twenty hour infusions of ascorbate were given three times per week. After four months of therapy, a surgical ileostomy was performed due to chronic diarrhea.

clinical [5] = conditions: human, in vivo
Excerpt: It is known that ascorbic acid and salts thereof have shown a cytotoxic effect when administered in vitro to tumor cell lines. […] The cytotoxic effect of ascorbic acid is understood to relate to the increased production of intracellular hydrogen peroxide, which is more toxic to tumor cells due to the lower levels of catalase typically present in tumor cells as compared to normal cells. Although some cancers may respond to lower levels, the concentration level of ascorbic acid required for in vitro cytotoxic effectiveness are normally in the range of 5-40 mg/dl with concentrations of 30-40 mg/dl being typical. […] Moreover, since ascorbic acid is readily cleared from the body, the tumor cytotoxic effect, if any, achieved by conventionally administered doses of ascorbic acid would be transitory at best.
The method of the present invention comprises the treatment of cancer by administering sufficient amounts of ascorbic acid to raise the concentration of ascorbic acid in the patient's plasma above a level that is cytotoxic to the cancer tumor cells. The treatment is based on the fact that tumor cells contain between 10 and 100 fold less of the enzyme catalase than normal cells. Catalase converts toxic hydrogen peroxide to non-toxic oxygen and water. This biochemical difference between normal and tumor cells provides a window of opportunity for selective toxicity. It has been known for some time that ascorbate is capable of inducing the intracellular production of hydrogen peroxide. The basis of the present invention is the discovery, through experimentation, that concentrations of ascorbate capable of inducing toxic reactions in tumor cells were achievable in vivo through intravenous infusion of large amounts of ascorbic acid in solution. […] For this reason, it is desirable to exceed the levels required for in vitro cytotoxicity in tumor cells by a wide margin. It is also advantageous to maintain the cytotoxic level of ascorbic acid in the patient's plasma for as long a period of time as is reasonably possible. To achieve such results in patients, the treatment has required intravenous administration of as much as 115 grams of ascorbic acid infused over several hours to achieve an apparently effective level of ascorbic acid. […] Continuous administration of a solution of ascorbic acid maintains the plasma levels despite the bodies ability to clear the ascorbate from the patient's system. Continuation of the treatment over multiple infusions is believed to be desirable. […] The plasma levels of ascorbic acid in patients are routinely and repeatedly monitored throughout the treatment and the amount of ascorbic acid administered is adjusted according to the individual patient's tolerance and the target level of ascorbic acid. Target levels of ascorbic acid are set according to the type of cancer afflicting the patient using in vitro studies of cytotoxicity in similar cell lines. More accurate target levels can be achieved by in vitro experimentation of malignant cells taken from the patient if such are available. A further development of the treatment of the present invention involves the direct testing of the cytotoxic effectiveness of the patient's serum. Serum is drawn during the infusion and either the patient malignant cells, if available, or similar cell lines are exposed to the patient's serum with the effects observed. This direct testing provides information that is used to adjust the amount of ascorbic acid administered to ensure that effective plasma levels have been achieved.
Since, as stated above, there is not a direct translation of in vitro to in vivo results, the level of ascorbic acid within the patient's plasma must be raised to exceed the levels required for in vitro cytotoxicity in tumor cells and maintained at that level for a significant period of time. The patient undergoes an intravenous infusion of ascorbic acid in a medically acceptable aqueous solution such as Ringer's lactate. As an example, Mr. […]

[6] = tested on: metastatic ovarian cancer; test: A person, intravenous ascorbate, cancer antigen CA-125 level; assay type: in vivo, human; conditions: throughout intravenous ascorbate therapy, seven months
Protocol: 4 a person is a person with metastatic ovarian cancer. After six months of standard chemotherapy, a second exploratory surgery was performed, at which time metastases throughout the abdominal cavity were found. The patient was started on intravenous ascorbate infusions at the quantity and rate of flow required to maintain a plasma concentration of 80 mg/dl.

[7] = tested on: PC-3 human prostate tumor cells; test: cells; assay type: cell-based; conditions: PC-3, 120 h
Protocol: as §1

[8] = tested on: metastatic colon carcinoma; test: A person, intravenous ascorbate, metastases observed during surgery; assay type: in vivo, human; conditions: after four months of therapy
Protocol: as §2

[9] = humans; cited from earlier work
[10] = tested on: metastatic carcinoma of the head of the pancreas; test: A person, intravenous ascorbate, tumor on C-T scan; assay type: in vivo, human; conditions: six months after diagnosis
Protocol: Since, as stated above, there is not a direct translation of in vitro to in vivo results, the level of ascorbic acid within the patient's plasma must be raised to exceed the levels required for in vitro cytotoxicity in tumor cells and maintained at that level for a significant period of time. The patient undergoes an intravenous infusion of ascorbic acid in a medically acceptable aqueous solution such as Ringer's lactate. As an example, whose case is described below was administered 115 grams of ascorbic acid in 1000 cc Ringer's lactate, infused over 8 hours. The infusions are continued until resolution of the patient's tumors have been evidenced. Normal diagnosis and classification of the patient's cancer can be used in conjunction with experimental results to predict the target levels of ascorbic acid for an effective treatment. More accurate target levels can be achieved by experimentation on cultured malignant cells taken from the patient if such are available. […] The plasma levels of ascorbic acid in patients are routinely and repeatedly monitored throughout the treatment and the amount of ascorbic acid administered is adjusted according to the individuals tolerance and the target level of ascorbic acid. […]

[11] = cited from earlier work
[12] = tested on: intracellular adhesion molecule-1 (ICAM-1); conditions: cited from earlier work

Molecule: O=C1O[C@H]([C@@H](O)CO)C(O)=C1O [ascorbic acid]
- benefit to patients with advanced cancer (cancer): failure of high doses of ascorbic acid to have the desired effect in the treatment of cancer
- detrimental side effects ([1]; A person, 39 8 hour infusions, 57.5 to 115 grams per infusion, 13 weeks): without reported detrimental side effects
- depletion of minerals and other substances ([1]; ascorbic acid infusion process): depletion of certain minerals and other substances
- detrimental side effects ([1]; intravenous infusion of large amounts (as much as 115 grams over several hours)): without reported detrimental side effects
- right lung mass, chest x-ray ([2]; after seven months of therapy): disappeared
- diameter of regressed left lung mass ([2]; after seven months, initially approximately 2 cm in diameter): about 1 cm
- left lung mass which had regressed ([2]; after twelve months of therapy): completely resolved
- size of the remaining left lung metastasis ([2]; after twelve months of therapy): no change
- left lung mass, chest x-ray ([2]; one of the left lung masses, after seven months of therapy): decreased in size (to about 1 cm) with decreased radio-opacity
- ascorbic acid concentration in serum (clinical [3]): 3.4 mg/dL
- concentration at 5 h (clinical [3]): 1650 µg/mL
- effect of exposure to plasma on cytotoxic effect (tumor cell lines; exposure to plasma): diminished, to varying degrees
- concentration level of ascorbic acid required for in vitro cytotoxic effectiveness (tumor cell lines; normally in the range): 5 to 40 mg/dL
- concentration level of ascorbic acid required for in vitro cytotoxic effectiveness, typical (tumor cell lines; typical concentrations): 30 to 40 mg/dL
- cytotoxicity at 300 µg/mL [4]: 100%
- concentration at 1 h (clinical [5]; iv): 1580 µg/mL
- concentration at 5 h (clinical [5]; iv): 1850 µg/mL
- plasma concentration maintained (clinical [5]; iv): 80 mg/dL
- plasma level of ascorbate achieved (clinical [5]; iv): exceeding 150 mg/dl
- plasma levels of ascorbate achieved (clinical [5]; iv): 110 mg/dL
- targeted plasma ascorbic acid concentration achieved and maintained (clinical [5]; iv): 90 mg/dL
- levels of ascorbic acid between infusions (clinical [5]; po): found to avoid abnormally low levels of ascorbic acid between infusions
- level of cancer antigen CA-125 [6]: returned to normal and remained within normal limits
- viability at 1650 µg/mL ([7]; read-out: percent tumor cell survival, post-infusion serum (165 mg/dl ascorbic acid), 50% serum, five days): 15%
- viability at 1650 µg/mL ([7]; read-out: percent tumor cell survival, post-infusion serum (165 mg/dl ascorbic acid), 100% serum, five days): 19%
- viability at 34 µg/mL ([7]; read-out: percent tumor cell survival, preinfusion serum (3.4 mg/dl ascorbic acid), 50% serum, five days, reference): 100%
- viability at 34 µg/mL ([7]; read-out: percent tumor cell survival, preinfusion serum (3.4 mg/dl ascorbic acid), 100% serum, five days, reference): 100%
- multiple metastases, size and consistency [8]: decreased significantly in size and have a flaccid consistency
- normal plasma levels of ascorbic acid [9]: 0.39 to 1.13 mg/dL
- tumor seen on C-T scan [10]: no detectable tumor
- highest dosage understood to be safely administered to a human ([11]; human, before the invention): 10-15 grams
- tumor necrosis and hemorrhage ([11]; rare cases of extreme tumor sensitivity to ascorbic acid, fatal): rare instances of wide-spread tumor necrosis and hemorrhage

Molecule: hyaluronic acid
- binding by ICAM-1 [12]: preferentially bound
